Assay results as given in publication PMC9335333 (Proceedings of the National Academy of Sciences of the …, 2022).

Biological target: T1, vesicular nucleotide transporter (VNUT) (Homo sapiens, UniProt Q9BYT1)
T1 sequence (Q9BYT1 1-436): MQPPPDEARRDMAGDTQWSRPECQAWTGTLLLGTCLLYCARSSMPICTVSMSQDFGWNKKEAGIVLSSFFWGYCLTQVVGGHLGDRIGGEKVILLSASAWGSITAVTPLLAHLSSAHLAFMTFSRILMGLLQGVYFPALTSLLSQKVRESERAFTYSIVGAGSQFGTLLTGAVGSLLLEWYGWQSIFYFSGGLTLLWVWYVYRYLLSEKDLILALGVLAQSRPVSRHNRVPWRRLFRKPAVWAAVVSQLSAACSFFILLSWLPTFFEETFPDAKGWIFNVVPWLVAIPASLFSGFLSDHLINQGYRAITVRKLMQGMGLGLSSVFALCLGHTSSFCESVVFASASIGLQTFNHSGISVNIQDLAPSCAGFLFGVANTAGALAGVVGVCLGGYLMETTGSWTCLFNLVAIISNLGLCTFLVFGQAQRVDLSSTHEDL
Assay: [3H]-ATP uptake in proteoliposomes with purified human VNUT
Format: biochemical

- IC50: 67 nM
SMILES: CC/C=C\C/C=C\C/C=C\C/C=C\C/C=C\CCCC(=O)O [EPA, eicosapentaenoic acid]
